For nine compounds, remaining activity results are on record in US12227500B2, “Substituted pyrrolo[2,3-b]pyridines for suppressing toxic endoplasmic reticulum stress” (THE TRUSTEES OF COLUMBIA UNIVERSITY IN THE CITY OF NEW YORK, priority 2018, dated 2025).

Experiment in all cases: Radiolabeled ATP kinase assay, panel of 60 kinases (Table S5)
Holding throughout (assay type): biochemical

Assay [1] concerns the target T1, panel of 60 human kinases (Homo sapiens, UniProt O95819).
T1 construct: purchased Reaction Biology Corp
As to conditions: HGK/MAP4K4; 0.1 μM; 10 μM ATP; read-out: % Enzyme Activity (relative to DSMO controls). Summed up: (§1)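 Compounds at two concentrations, 0.1 μM and 0.5 μM, were screened for inhibition of 60 kinases in cell-free assays read out by radiolabeled ATP.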

Assay [2] deals with T2, panel of 60 human kinases (Homo sapiens, UniProt P21802).
T2 construct: purchased Reaction Biology Corp
T2 sequence (P21802 22-821): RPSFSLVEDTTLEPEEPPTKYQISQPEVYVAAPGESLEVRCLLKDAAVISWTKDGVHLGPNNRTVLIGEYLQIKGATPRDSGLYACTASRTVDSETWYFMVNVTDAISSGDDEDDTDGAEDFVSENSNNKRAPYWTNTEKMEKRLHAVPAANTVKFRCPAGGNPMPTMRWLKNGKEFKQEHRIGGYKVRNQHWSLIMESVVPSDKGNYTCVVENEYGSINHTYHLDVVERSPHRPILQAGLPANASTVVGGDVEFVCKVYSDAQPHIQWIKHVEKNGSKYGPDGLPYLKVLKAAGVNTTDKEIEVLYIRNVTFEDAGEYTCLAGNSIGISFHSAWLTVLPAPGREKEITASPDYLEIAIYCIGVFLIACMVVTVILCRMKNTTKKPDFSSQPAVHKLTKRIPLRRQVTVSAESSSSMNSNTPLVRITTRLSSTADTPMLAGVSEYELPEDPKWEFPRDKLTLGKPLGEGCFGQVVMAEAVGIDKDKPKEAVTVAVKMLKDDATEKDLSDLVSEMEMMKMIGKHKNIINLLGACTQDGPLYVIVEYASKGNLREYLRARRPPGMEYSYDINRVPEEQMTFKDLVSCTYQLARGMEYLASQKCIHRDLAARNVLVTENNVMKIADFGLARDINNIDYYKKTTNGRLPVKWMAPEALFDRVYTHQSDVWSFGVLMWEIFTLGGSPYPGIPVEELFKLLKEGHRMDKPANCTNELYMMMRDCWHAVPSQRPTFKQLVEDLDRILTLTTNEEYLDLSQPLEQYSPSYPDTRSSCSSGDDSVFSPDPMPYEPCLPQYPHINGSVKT
To be noted: FGFR2; 0.1 μM; 10 μM ATP; read-out: % Enzyme Activity (relative to DSMO controls). Put shortly:
as §1

In assay [3] the target is T3, panel of 60 human kinases (Homo sapiens, UniProt Q7L7X3).
T3 construct: purchased Reaction Biology Corp
T3 sequence (Q7L7X3 1-1001): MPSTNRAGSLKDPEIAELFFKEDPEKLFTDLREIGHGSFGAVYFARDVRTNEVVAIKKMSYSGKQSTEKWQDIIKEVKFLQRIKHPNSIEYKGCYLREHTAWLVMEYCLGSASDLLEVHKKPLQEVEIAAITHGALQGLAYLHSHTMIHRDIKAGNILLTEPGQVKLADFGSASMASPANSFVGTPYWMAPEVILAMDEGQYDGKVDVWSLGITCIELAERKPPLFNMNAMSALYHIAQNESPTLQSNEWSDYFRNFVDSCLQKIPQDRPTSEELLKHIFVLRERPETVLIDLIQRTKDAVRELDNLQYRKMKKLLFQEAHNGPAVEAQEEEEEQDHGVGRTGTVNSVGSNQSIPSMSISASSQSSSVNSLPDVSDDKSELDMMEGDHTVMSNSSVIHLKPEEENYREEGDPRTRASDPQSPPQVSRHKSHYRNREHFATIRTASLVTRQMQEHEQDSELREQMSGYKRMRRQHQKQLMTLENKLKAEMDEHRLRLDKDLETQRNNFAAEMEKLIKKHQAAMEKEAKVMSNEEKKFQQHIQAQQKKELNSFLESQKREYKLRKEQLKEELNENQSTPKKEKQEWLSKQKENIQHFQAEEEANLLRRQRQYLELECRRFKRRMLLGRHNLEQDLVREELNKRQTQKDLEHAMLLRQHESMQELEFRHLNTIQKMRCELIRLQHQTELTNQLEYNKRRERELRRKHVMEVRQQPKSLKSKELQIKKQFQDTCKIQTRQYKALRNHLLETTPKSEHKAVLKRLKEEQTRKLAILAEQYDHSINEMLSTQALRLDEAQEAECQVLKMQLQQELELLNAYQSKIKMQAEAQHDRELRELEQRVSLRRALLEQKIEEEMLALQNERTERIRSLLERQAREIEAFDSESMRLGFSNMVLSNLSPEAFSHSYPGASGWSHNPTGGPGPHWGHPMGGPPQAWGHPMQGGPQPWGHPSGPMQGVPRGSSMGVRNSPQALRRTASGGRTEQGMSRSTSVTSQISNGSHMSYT
To be noted: TAOK1; 0.1 μM; 10 μM ATP; read-out: % Enzyme Activity (relative to DSMO controls). Put shortly:
as §1

Assay [4] has as its target T4, panel of 60 human kinases (Homo sapiens, UniProt Q9UQB9).
T4 construct: purchased Reaction Biology Corp
T4 sequence (Q9UQB9 1-309): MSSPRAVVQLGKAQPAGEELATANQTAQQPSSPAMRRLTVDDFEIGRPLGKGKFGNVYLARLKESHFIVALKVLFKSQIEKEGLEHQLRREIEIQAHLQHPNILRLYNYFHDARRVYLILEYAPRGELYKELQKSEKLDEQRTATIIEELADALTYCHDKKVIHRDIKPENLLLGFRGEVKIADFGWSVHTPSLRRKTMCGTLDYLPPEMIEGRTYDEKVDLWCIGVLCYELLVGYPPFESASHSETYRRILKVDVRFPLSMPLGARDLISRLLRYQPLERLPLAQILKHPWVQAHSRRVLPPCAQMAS
To be noted: Aurora C; 0.1 μM; 10 μM ATP; read-out: % Enzyme Activity (relative to DSMO controls). Put shortly:
as §1

Assay [5] has as its target T5, panel of 60 human kinases (Homo sapiens, UniProt Q16288).
T5 construct: purchased Reaction Biology Corp
As to conditions: TRKC; 0.1 μM; 10 μM ATP; read-out: % Enzyme Activity (relative to DSMO controls). Put shortly: as §1

Assay [6] deals with T6, panel of 60 human kinases (Homo sapiens, UniProt O15264).
T6 construct: purchased Reaction Biology Corp
T6 sequence (O15264 1-365): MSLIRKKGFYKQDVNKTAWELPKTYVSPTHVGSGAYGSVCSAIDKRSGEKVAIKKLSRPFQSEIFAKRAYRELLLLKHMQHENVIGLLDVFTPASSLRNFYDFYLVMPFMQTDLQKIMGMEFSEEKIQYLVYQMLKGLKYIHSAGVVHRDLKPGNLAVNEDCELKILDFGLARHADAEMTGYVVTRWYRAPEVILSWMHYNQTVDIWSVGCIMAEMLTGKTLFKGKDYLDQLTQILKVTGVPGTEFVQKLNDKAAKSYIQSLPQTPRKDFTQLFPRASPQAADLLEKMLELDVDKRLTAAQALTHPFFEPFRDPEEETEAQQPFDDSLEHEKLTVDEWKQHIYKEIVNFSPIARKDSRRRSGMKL
To be noted: P38d/MAPK13; 0.1 μM; 10 μM ATP; read-out: % Enzyme Activity (relative to DSMO controls). Summed up:
as §1

The target in assay [7] is T7, panel of 60 human kinases (Homo sapiens, UniProt Q9HAZ1).
T7 construct: purchased Reaction Biology Corp
T7 sequence (Q9HAZ1 whole entry): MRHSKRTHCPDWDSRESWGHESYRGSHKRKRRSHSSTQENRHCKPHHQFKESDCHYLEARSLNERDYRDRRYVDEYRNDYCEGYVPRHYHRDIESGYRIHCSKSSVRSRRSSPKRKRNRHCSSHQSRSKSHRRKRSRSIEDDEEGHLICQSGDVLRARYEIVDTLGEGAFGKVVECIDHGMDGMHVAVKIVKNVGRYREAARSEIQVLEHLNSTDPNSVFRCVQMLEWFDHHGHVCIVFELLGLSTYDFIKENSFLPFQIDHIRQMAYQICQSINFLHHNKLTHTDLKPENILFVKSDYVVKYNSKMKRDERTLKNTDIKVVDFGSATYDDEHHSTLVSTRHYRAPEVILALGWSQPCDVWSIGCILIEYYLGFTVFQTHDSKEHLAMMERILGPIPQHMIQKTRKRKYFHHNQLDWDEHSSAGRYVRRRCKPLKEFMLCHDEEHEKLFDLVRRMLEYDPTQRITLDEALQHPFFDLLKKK
To be noted: CLK4; 0.1 μM; 10 μM ATP; read-out: % Enzyme Activity (relative to DSMO controls). Put shortly: as §1

Each structure is given as a SMILES string.

T1 sequence (O95819 whole entry): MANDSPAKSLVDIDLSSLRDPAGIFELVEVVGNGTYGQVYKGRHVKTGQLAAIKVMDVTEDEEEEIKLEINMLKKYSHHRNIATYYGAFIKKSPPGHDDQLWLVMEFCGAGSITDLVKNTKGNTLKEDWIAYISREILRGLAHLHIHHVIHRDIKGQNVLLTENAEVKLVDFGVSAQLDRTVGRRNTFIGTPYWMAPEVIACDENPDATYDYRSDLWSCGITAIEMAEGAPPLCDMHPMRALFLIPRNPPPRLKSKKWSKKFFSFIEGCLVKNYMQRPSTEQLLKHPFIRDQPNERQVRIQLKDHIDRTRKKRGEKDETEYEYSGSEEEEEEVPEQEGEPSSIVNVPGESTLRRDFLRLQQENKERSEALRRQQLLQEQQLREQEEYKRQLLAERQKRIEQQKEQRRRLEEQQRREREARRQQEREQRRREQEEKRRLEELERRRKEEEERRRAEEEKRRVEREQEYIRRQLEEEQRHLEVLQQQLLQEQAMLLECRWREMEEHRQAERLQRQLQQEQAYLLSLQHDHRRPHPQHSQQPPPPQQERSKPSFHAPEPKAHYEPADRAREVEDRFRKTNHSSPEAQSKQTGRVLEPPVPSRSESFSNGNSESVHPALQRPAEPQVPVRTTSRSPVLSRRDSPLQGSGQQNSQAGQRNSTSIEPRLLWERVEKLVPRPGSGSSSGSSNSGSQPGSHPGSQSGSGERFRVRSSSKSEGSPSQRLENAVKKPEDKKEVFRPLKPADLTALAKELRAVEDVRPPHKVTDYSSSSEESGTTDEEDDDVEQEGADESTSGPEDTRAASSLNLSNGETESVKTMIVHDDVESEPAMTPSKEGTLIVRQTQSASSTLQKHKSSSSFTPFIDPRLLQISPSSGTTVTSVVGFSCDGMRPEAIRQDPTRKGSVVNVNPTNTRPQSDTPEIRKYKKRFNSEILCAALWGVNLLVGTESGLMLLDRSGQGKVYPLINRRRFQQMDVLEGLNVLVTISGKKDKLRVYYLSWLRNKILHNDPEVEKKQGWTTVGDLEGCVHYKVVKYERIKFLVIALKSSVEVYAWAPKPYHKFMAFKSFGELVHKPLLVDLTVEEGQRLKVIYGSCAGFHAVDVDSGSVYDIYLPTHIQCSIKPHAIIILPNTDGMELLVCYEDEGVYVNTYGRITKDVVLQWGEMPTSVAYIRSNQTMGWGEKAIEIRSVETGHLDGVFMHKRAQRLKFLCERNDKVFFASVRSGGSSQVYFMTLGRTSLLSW
T5 sequence (Q16288 32-839): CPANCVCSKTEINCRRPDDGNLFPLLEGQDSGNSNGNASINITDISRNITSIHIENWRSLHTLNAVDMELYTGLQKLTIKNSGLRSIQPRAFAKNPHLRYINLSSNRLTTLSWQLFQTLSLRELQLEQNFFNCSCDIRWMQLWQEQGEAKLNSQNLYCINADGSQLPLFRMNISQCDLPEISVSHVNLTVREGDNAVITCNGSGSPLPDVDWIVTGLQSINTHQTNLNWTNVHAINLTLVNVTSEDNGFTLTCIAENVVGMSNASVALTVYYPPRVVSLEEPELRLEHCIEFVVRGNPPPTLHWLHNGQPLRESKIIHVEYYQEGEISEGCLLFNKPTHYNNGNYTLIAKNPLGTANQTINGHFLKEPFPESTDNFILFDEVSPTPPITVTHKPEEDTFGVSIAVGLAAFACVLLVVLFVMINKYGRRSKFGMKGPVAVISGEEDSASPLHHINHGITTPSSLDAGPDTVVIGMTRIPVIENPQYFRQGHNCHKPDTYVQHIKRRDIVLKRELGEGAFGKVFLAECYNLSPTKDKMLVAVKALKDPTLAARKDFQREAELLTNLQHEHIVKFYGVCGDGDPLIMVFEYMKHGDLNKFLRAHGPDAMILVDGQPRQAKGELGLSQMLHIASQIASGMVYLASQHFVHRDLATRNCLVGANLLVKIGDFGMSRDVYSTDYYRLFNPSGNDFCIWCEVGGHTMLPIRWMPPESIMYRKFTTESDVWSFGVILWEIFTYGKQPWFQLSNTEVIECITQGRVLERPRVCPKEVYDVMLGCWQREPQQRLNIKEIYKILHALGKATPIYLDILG

Turning to `CN1CCN(Cc2ccc(-c3cnc4[nH]cc(-c5ccc6[nH]ccc6c5)c4c3)cc2)CC1` [Compound 1, 3-(1H-Indol-5-yl)-5-(4-((4-methylpiperazin-1-yl)methyl)phenyl)-1H-pyrrolo[2,3-b]pyridine, reference compound], the remaining activity at 0.1 µM was determined as 1.96% in assay [1]; 52.9% in assay [2]; 63.5% in assay [3]; 82.8% in assay [4]; 6.69% in assay [5]; 112% in assay [6]. Also, in assay [7], the remaining activity at 0.1 µM amounted to 59.2%.

For `CN1CCN(Cc2ccc(-c3cnc4[nH]cc(-c5cccc(Cl)c5)c4c3)cc2)CC1` [Compound 7ad, 3-(3-Chlorophenyl)-5-(4-((4-methylpiperazin-1-yl)methyl)phenyl)-1H-pyrrolo[2,3-b]pyridine], the remaining activity at 0.1 µM in assay [1] was found to be 1.36%; in assay [2], 77.6%; in assay [3], 75.4%; in assay [4], 104%; in assay [5] it was 51.2%; in assay [6], 119%. Besides, the remaining activity at 0.1 µM in assay [7] was found to be 87.8%.

On to `CN1CCN(Cc2ccc(-c3cnc4[nH]cc(-c5cnn(Cc6ccccc6)c5)c4c3)cc2)CC1` [Compound 7ah, 3-(1-Benzyl-1H-pyrazol-4-yl)-5-(4-((4-methylpiperazin-1-yl)methyl)phenyl)-1H-pyrrolo[2,3-b]pyridine], for which the remaining activity at 0.1 µM turned out to be 5.18% in assay [1]; 73.8% in assay [2]; 62.1% in assay [3]; 78.5% in assay [4]; 9.83% in assay [5]; 109% in assay [6]. Further, the remaining activity at 0.1 µM in assay [7] came out at 21.8%.

Turning to `Cc1nn(C)c(C)c1-c1c[nH]c2ncc(-c3ccc(CN4CCN(C)CC4)cc3)cc12` [Compound 7ai, 5-(4-((4-Methylpiperazin-1-yl)methyl)phenyl)-3-(1,3,5-trimethyl-1H-pyrazol-4-yl)-1H-pyrrolo[2,3-b]pyridine], the remaining activity at 0.1 µM in assay [1] came to 9.15%; in assay [2], 80.9%; in assay [3], 93.3%; in assay [4] it was 122%; in assay [5], 13.1%; in assay [6] it was 106%. Further, the remaining activity at 0.1 µM in assay [7] stood at 78.5%.

`CN1CCN(Cc2ccc(-c3cnc4[nH]cc(-c5ccccc5Cl)c4c3)cc2)CC1` [Compound 7as, 3-(2-Chlorophenyl)-5-(4-((4-methylpiperazin-1-yl)methyl)phenyl)-1H-pyrrolo[2,3-b]pyridine]: the remaining activity at 0.1 µM in assay [1] was -0.5%; in assay [2] it was 41.1%; in assay [3], 39.3%; in assay [4], 94.2%; in assay [5], 6.32%; in assay [6] it was 113%. In addition, the remaining activity at 0.1 µM in assay [7] is 65.7%.

As for `COc1ccccc1-c1c[nH]c2ncc(-c3ccc(CN4CCN(C)CC4)cc3)cc12` [Compound 7at, 3-(2-Methoxyphenyl)-5-(4-((4-methylpiperazin-1-yl)methyl)phenyl)-1H-pyrrolo[2,3-b]pyridine], the remaining activity at 0.1 µM in assay [1] came to 9.52%; in assay [2], 83.4%; in assay [3], 40.5%; in assay [4], 107%; in assay [5], 34.8%; in assay [6], 104%. Besides, the remaining activity at 0.1 µM in assay [7] was found to be 90.4%.

Turning to `CN1CCN(Cc2ccc(-c3cnc4[nH]cc(-c5ccc6c(c5)OCCO6)c4c3)cc2)CC1` [Compound 7d, 3-(2,3-Dihydrobenzo[b][1,4]dioxin-6-yl)-5-(4-((4-methylpiperazin-1-yl)methyl)phenyl)-1H-pyrrolo[2,3-b]pyridine], the remaining activity at 0.1 µM in assay [1] came to 2.05%; in assay [2] it was 70.4%; in assay [3], 37.3%; in assay [4], 92.3%; in assay [5] it was 17.7%; in assay [6], 98.6%. Further, the remaining activity at 0.1 µM in assay [7] amounted to 21.3%.

In the case of `CN1CCN(Cc2ccc(-c3cnc4[nH]cc(-c5ccncc5)c4c3)cc2)CC1` [Compound 7n, 5-(4-((4-Methylpiperazin-1-yl)methyl)phenyl)-3-(pyridin-4-yl)-1H-pyrrolo[2,3-b]pyridine], the remaining activity at 0.1 µM in assay [1] was found to be 35%; in assay [2], 94%; in assay [3], 87.4%; in assay [4], 101%; in assay [5] it was 25.4%; in assay [6], 105%. The remaining activity at 0.1 µM in assay [7] worked out at 72.2%.

For `CN1CCN(Cc2ccc(-c3cnc4[nH]cc(-c5ccoc5)c4c3)cc2)CC1` [Compound 7w, 3-(Furan-3-yl)-5-(4-((4-methylpiperazin-1-yl)methyl)phenyl)-1H-pyrrolo[2,3-b]pyridine], the remaining activity at 0.1 µM in assay [1] was determined as 2.85%; in assay [2] it was 77.8%; in assay [3], 90%; in assay [4], 94.3%; in assay [5], 25.8%; in assay [6] it was 112%. In addition, the remaining activity at 0.1 µM in assay [7] was 85.5%.
